{"source": "paper PMC4171207", "about": "(Antiviral research, 2014)", "key": {"VZV-BAC-Luc [1]": {"test_system": "VZV-BAC-Luc", "assay": "VZV-BAC-Luc in skin organ culture", "type": "cell-based, varicella-zoster virus", "conditions": "read-out: EC50 in SOC; 6 dpi, bioluminescence imaging, mean ± SD"}, "VZV-BAC-Luc [2]": {"test_system": "VZV-BAC-Luc", "type": "in vivo, varicella-zoster virus", "conditions": "SCID-Hu mice"}, "[3]": {"test_system": "human foreskin fibroblasts (HFFs)", "assay": "Neutral red cytotoxicity assay in HFFs", "type": "cell-based"}, "VZV-BAC-Luc [4]": {"test_system": "VZV-BAC-Luc", "assay": "Drug synergy assay", "type": "cell-based, varicella-zoster virus", "conditions": "HFFs, 48 h, VZV yield by bioluminescence"}, "VZV-BAC-Luc [5]": {"test_system": "VZV-BAC-Luc", "assay": "VZV yield in HFFs by quantitative real-time PCR", "type": "cell-based, varicella-zoster virus"}, "VZV-BAC-Luc [6]": {"test_system": "VZV-BAC-Luc", "assay": "microbe, parasite or virus in culture", "type": "cell-based, varicella-zoster virus", "conditions": "for SI (CC50/EC50): selectivity index in HFFs"}, "[7]": {"conditions": "for Ratio to Plasma: 2 h post final treatment"}, "5-FU catabolism": {"test_system": "5-FU catabolism", "assay": "LC-MS/MS analysis of 5-fluorouracil metabolism in mice", "type": "in vivo, BALB/c mice", "conditions": "for 5-FU concentration in plasma: 5-FU 30 mg/kg i.v. plus test drug 10 mg/kg p.o."}}, "note": "Where a name gives a salt, the structure may show the parent alone. Read-outs that look alike come from different tables or passages of the source. Marks after values point to notes of the source that are not given here."}
{"smiles": "O=c1ccn(C2OC(CO)OC2/C=C/Br)c(=O)[nH]1", "note": "[L-BHDU (1), β-L-1-[5-(E-2-Bromovinyl)-2-(hydroxymethyl)-1,3-(dioxolan-4-yl)] uracil]", "values": [{"measurement": "EC50", "setting": "VZV-BAC-Luc [1]", "value": "240 ± 20", "unit": "nM"}, {"measurement": "Ave. VZV Growth Rate (± SD)", "setting": "VZV-BAC-Luc [2]; 8 mg/kg/day oral gavage", "value": "0.33 (0.03) Log10(photons/s/day)"}, {"measurement": "Ave. VZV Growth Rate (± SD)", "setting": "VZV-BAC-Luc [2]; 8 mg/kg/day oral gavage, listed as L-BHDU", "value": "0.33 ± 0.03 Log10(photons/s/day)"}, {"measurement": "Ave. VZV Growth Rate (± SD)", "setting": "VZV-BAC-Luc [2]; 15 mg/kg/day oral gavage", "value": "0.25 (0.09) ^* Log10(photons/s/day)"}, {"measurement": "Ave. VZV Growth Rate (± SD)", "setting": "VZV-BAC-Luc [2]; 15 mg/kg/day oral gavage, listed as L-BHDU", "value": "0.25 ± 0.9 Log10(photons/s/day)"}, {"measurement": "Ave. VZV Growth Rate (± SD)", "setting": "VZV-BAC-Luc [2]; 150 mg/kg/day oral gavage", "value": "0.22 (0.06) ^* Log10(photons/s/day)"}, {"measurement": "Ave. VZV Growth Rate (± SD)", "setting": "VZV-BAC-Luc [2]; 150 mg/kg/day oral gavage, listed as L-BHDU", "value": "0.22 ± 0.6 Log10(photons/s/day)"}, {"measurement": "cytotoxicity at 200 μM", "setting": "[3]; 200 μM, 3 days", "value": "noncytotoxic"}, {"measurement": "CC50", "setting": "[3]; 72 h, neutral red assay", "value": "> 200000", "unit": "nM"}, {"measurement": "Mortality", "setting": "8 mg/kg/day", "value": "1/5"}, {"measurement": "Mortality", "setting": "15 mg/kg/day", "value": "0/5"}, {"measurement": "Mortality", "setting": "150 mg/kg/day", "value": "0/5"}, {"measurement": "overt toxicity in vivo", "setting": "mouse, in vivo", "value": "No overt toxicity"}, {"measurement": "weight loss", "setting": "mouse, in vivo", "value": "moderate weight loss"}, {"measurement": "interaction with ACV, BVdU and PFA", "setting": "VZV-BAC-Luc [4]", "value": "antagonized the activity of ACV, BVdU and foscarnet"}, {"measurement": "VZV genome copy number", "setting": "VZV-BAC-Luc [5]", "value": "reduced VZV genome copy number"}, {"measurement": "EC50", "setting": "VZV-BAC-Luc [5]; read-out: EC50 determined by qPCR, VZV genomes", "value": "~70", "unit": "nM"}, {"measurement": "EC50", "setting": "VZV-BAC-Luc [6]; read-out: EC50 in HFFs, 48 hpi, bioluminescence imaging, mean ± SD", "value": "220 ± 10", "unit": "nM"}, {"measurement": "SI (CC50/EC50)", "setting": "VZV-BAC-Luc [6]", "value": ">909"}, {"measurement": "SI (CC50/EC50)", "setting": "VZV-BAC-Luc [6]; listed as L-BHDU", "value": "> 909"}, {"measurement": "concentration in human skin implants relative to EC50", "setting": "[7]; 8 mg/kg/day", "value": 10, "unit": "fold"}, {"measurement": "Ratio to Plasma", "setting": "[7]; Brain, 8 mg/kg/day", "value": "0.4 (0.3)"}, {"measurement": "Ratio to Plasma", "setting": "[7]; Brain, 150 mg/kg/day", "value": "0.1 (0.03)"}, {"measurement": "Ratio to Plasma", "setting": "[7]; Heart, 8 mg/kg/day", "value": "2.9 (2.5)"}, {"measurement": "Ratio to Plasma", "setting": "[7]; Heart, 150 mg/kg/day", "value": "1.0 (0.2)"}, {"measurement": "Ratio to Plasma", "setting": "[7]; Kidney, 8 mg/kg/day", "value": "5.1 (3.1)"}, {"measurement": "Ratio to Plasma", "setting": "[7]; Kidney, 150 mg/kg/day", "value": "2.1 (0.4)"}, {"measurement": "Ratio to Plasma", "setting": "[7]; Liver, 8 mg/kg/day", "value": "4.5 (1.1)"}, {"measurement": "Ratio to Plasma", "setting": "[7]; Liver, 150 mg/kg/day", "value": "1.5 (0.3)"}, {"measurement": "Ratio to Plasma", "setting": "[7]; Lung, 8 mg/kg/day", "value": "11.2 (5.7)"}, {"measurement": "Ratio to Plasma", "setting": "[7]; Lung, 150 mg/kg/day", "value": "2.3 (0.5)"}, {"measurement": "Ratio to Plasma", "setting": "[7]; Plasma, 8 mg/kg/day", "value": 1}, {"measurement": "Ratio to Plasma", "setting": "[7]; Plasma, 150 mg/kg/day", "value": 1}, {"measurement": "Ratio to Plasma", "setting": "[7]; Skin (Human) xenograft, 8 mg/kg/day", "value": "3.1 (2.6)"}, {"measurement": "Ratio to Plasma", "setting": "[7]; Skin (Mouse), 8 mg/kg/day", "value": "3.0 (2.5)"}, {"measurement": "Ratio to Plasma", "setting": "[7]; Skin (Mouse), 150 mg/kg/day", "value": "0.9 (0.2)"}, {"measurement": "Ratio to Plasma", "setting": "[7]; Spleen, 8 mg/kg/day", "value": "2.1 (1.3)"}, {"measurement": "Ratio to Plasma", "setting": "[7]; Spleen, 150 mg/kg/day", "value": "1.4 (0.2)"}]}
{"smiles": "O=c1[nH]c(=O)n([C@H]2C[C@H](O)[C@@H](CO)O2)cc1/C=C/Br", "note": "[BVdU, (E)-5-(2-Bromovinyl)-2′-deoxyuridine]", "values": [{"measurement": "5-FU concentration in plasma", "setting": "5-FU catabolism; 30 min", "value": 945, "unit": "nM"}, {"measurement": "5-FU concentration in plasma", "setting": "5-FU catabolism; 60 min", "value": 685, "unit": "nM"}, {"measurement": "effect on 5-FU catabolism", "setting": "5-FU catabolism; mice, 10 mg/kg p.o. with 5-FU 30 mg/kg i.v.", "value": "interfered with 5-FU catabolism"}]}
{"smiles": "Nc1nc2c(ncn2COCCO)c(=O)[nH]1", "note": "[ACV, Acyclovir, reference compound]", "values": [{"measurement": "Mortality", "setting": "120 mg/kg/day", "value": "0/11"}]}
{"smiles": "O=c1[nH]cc(F)c(=O)[nH]1", "note": "[5-FU, 5-fluorouracil]", "values": [{"measurement": "5-FU in plasma (average AUC)", "setting": "5-FU catabolism; 30 min, 5-FU alone 30 mg/kg i.v.", "value": 1246, "unit": "nM"}, {"measurement": "5-FU in plasma", "setting": "5-FU catabolism; 60 min, 5-FU alone 30 mg/kg i.v.", "value": "undetectable"}]}
{"smiles": "O=C(O)P(=O)(O)O", "note": "[PFA, sodium phosphonoformate tribasic hexahydrate, reference compound]", "values": [{"measurement": "EC50", "setting": "VZV-BAC-Luc [6]; Human alphaherpesvirus 3, read-out: EC50 in HFFs", "value": 40000, "unit": "nM"}]}
{"smiles": "CC(C)[C@H](N)C(=O)OCCOCn1cnc2c(=O)[nH]c(N)nc21", "note": "[VACV, Valacyclovir HCl, reference compound]", "values": [{"measurement": "Ave. VZV Growth Rate (± SD)", "setting": "VZV-BAC-Luc [2]; 120 mg/kg/day oral gavage", "value": "0.40 (0.09) Log10(photons/s/day)"}, {"measurement": "effect on VZV replication", "setting": "VZV-BAC-Luc [2]; 120 mg/kg/day", "value": "had no effect on VZV replication"}, {"measurement": "Ave. VZV Growth Rate (± SD)", "setting": "VZV-BAC-Luc [2]; 200 mg/kg/day oral gavage", "value": "0.27 (0.07) ^* Log10(photons/s/day)"}, {"measurement": "Ave. VZV Growth Rate (± SD)", "setting": "VZV-BAC-Luc [2]; 200 mg/kg/day oral gavage, listed as Valacyclovir", "value": "0.27 ± 0.07 Log10(photons/s/day)"}, {"measurement": "ABWD (±SD), Average Body Weight Difference from Days 0–7", "setting": "120 mg/kg/day", "value": "−2.9 (1.2) ^* grams"}, {"measurement": "Mortality", "setting": "120 mg/kg/day", "value": "0/11"}, {"measurement": "ABWD (±SD), Average Body Weight Difference from Days 0–7", "setting": "200 mg/kg/day", "value": "−3.6 (1.5) ^* grams"}, {"measurement": "Mortality", "setting": "200 mg/kg/day", "value": "0/10"}]}
